Results: patent publication US10072026B2, “Crystalline form of 3-((1R,3s,5S)-3-((7-((5-methyl-1H-pyrazol-3-yl)amino)-1,6-naphthyridin-5-yl)amino)-8-azabicyclo[3.2.1]octan-8-yl)propanenitrile” (priority 2015, dated 2018)
Like-named read-outs stand apart in the source and are kept apart here.

How the values were obtained:
JAK2 = JAK2 (Homo sapiens (Human), UniProt O60674); experiment: LanthaScreen JAK biochemical assay (JAK2)
Tyk2 = Tyk2 (Homo sapiens (Human), UniProt P29597); experiment: LanthaScreen JAK biochemical assay (Tyk2)
Chain of Tyk2 (P29597 whole entry): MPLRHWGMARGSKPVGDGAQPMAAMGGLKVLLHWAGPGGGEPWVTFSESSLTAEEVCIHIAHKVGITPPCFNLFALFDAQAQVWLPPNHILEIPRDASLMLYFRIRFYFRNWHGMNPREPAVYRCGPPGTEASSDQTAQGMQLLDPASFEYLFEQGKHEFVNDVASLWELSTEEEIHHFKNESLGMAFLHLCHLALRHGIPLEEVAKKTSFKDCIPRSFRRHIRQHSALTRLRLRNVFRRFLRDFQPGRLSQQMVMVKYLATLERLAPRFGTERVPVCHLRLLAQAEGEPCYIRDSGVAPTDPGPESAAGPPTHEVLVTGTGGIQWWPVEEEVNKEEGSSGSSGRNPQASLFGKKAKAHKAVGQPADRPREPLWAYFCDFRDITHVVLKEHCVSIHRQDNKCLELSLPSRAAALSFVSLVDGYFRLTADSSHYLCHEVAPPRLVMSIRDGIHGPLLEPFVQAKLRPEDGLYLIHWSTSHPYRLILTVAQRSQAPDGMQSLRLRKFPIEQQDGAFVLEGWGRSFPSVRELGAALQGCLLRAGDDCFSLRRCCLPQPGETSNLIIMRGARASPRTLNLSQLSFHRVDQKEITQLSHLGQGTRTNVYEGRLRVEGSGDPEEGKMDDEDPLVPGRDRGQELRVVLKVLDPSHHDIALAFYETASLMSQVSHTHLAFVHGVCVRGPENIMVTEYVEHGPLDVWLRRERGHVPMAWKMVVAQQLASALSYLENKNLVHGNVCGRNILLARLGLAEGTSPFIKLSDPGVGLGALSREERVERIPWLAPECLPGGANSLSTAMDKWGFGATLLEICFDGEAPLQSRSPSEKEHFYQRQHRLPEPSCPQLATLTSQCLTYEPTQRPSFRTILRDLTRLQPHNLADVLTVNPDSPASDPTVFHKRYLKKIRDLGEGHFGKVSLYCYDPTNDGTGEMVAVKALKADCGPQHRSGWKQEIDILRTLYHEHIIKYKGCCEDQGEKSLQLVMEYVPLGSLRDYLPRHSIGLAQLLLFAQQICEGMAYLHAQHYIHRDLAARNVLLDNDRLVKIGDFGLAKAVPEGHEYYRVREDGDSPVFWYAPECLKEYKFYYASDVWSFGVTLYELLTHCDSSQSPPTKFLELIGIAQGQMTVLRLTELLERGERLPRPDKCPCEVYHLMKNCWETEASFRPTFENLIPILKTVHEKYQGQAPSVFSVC

JAK1 = JAK1 (Homo sapiens (Human), UniProt P23458); experiment: LanthaScreen JAK biochemical assay (JAK1)
Chain of JAK1 (P23458 whole entry): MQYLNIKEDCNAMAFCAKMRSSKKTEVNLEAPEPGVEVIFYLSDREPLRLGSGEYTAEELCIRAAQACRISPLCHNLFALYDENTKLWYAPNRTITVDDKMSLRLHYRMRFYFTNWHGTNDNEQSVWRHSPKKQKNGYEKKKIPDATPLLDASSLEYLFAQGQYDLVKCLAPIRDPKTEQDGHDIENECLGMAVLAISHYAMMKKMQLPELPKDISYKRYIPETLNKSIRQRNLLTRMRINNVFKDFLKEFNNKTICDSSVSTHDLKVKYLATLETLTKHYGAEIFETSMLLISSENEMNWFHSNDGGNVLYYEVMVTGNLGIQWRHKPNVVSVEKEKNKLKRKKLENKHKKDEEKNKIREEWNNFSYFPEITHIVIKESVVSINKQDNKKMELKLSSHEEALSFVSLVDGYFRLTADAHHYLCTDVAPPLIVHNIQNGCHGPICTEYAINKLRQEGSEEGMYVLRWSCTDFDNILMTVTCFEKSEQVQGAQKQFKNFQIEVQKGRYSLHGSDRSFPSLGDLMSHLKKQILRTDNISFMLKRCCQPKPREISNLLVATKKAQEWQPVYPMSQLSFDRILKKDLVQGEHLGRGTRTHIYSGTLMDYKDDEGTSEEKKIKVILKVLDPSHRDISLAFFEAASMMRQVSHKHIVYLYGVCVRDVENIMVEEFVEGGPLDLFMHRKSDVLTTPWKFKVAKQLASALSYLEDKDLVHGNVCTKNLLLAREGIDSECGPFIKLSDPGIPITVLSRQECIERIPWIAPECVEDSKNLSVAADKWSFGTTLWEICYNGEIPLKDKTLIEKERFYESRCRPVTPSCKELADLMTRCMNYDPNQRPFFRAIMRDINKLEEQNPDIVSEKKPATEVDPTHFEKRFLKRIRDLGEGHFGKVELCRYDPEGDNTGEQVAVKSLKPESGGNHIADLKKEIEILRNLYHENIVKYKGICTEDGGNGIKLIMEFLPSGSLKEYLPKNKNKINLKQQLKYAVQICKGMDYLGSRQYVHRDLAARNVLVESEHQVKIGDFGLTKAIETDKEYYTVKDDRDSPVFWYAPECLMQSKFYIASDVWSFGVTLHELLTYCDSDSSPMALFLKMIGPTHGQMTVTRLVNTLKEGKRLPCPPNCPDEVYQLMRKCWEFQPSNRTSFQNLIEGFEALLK

[1] = test system: IL-13 induced STAT6 phosphorylation in BEAS-2B human lung epithelial cells; experiment: AlphaScreen cellular JAK potency assay, BEAS-2B
[2] = test system: IL-4 induced STAT6 phosphorylation in THP-1 human monocytic cells; experiment: Cellular JAK potency assay, THP-1
[3] = IL-13 induced STAT6 phosphorylation, BEAS-2B cells
[4] = read-out: JAK 2 (pKi) (converted)
[5] = Homo sapiens, THP-1, read-out: THP-1 IL4 pIC50 (converted)
[6] = read-out: Tyk 2 (pKi) (converted)
[7] = read-out: JAK 1 (pKi) (converted)
[8] = Homo sapiens, BEAS-2B, read-out: BEAS2B pIC50 (converted)
[9] = THP-1 cells, IL-4 induced STAT6 phosphorylation
[10] = BEAS-2B cells, IL-13 induced STAT6 phosphorylation
[11] = IL-4 induced STAT6 phosphorylation, THP-1 cells

Chain of JAK2 (O60674 whole entry): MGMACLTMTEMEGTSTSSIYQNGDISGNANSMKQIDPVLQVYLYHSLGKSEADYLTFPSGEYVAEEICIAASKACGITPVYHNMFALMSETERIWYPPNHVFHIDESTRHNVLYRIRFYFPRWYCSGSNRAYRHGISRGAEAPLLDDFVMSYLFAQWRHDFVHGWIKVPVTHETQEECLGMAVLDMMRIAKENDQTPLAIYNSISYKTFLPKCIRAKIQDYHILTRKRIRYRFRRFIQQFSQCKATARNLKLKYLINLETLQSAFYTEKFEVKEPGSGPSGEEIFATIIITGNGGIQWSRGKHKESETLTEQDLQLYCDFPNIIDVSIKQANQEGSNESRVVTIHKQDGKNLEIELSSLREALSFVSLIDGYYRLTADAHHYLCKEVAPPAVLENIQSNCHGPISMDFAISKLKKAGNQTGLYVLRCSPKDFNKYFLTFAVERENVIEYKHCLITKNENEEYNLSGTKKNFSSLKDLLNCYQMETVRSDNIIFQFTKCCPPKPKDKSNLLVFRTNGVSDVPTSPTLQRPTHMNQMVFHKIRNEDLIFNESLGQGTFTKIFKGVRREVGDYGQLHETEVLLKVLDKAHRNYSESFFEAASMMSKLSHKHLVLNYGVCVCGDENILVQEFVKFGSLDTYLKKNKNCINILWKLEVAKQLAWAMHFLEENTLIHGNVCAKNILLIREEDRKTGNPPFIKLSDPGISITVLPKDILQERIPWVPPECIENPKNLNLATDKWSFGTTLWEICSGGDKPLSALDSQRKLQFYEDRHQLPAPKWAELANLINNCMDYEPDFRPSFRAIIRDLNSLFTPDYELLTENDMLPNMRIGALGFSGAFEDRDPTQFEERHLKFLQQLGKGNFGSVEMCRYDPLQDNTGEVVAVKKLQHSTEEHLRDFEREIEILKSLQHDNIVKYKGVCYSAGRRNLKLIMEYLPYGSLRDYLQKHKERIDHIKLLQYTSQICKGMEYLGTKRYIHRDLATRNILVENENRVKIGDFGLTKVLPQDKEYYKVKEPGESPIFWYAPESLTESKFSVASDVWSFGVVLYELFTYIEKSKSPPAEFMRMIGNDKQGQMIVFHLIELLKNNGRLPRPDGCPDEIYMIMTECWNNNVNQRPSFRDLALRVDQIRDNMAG

Structure (SMILES)	JAK 2 (pKi) (JAK2)	Tyk 2 (pKi) (Tyk2)	JAK 1 (pKi) (JAK1)	IC50 [2, 5] [nM]	Ki (Tyk2; [6]) [nM]	Ki (JAK1; [7]) [nM]	IC50 [1, 8] [nM]	also measured
Cc1cc(Nc2cc3ncccc3c(N[C@@H]3C[C@H]4CCC[C@@H](C3)N4C(=O)CCCC#N)n2)n[nH]1 [Example 2-27]	B (B represents a pKi value between 9 and 10 (Ki between 1 nM and 0.1 nM))	B (B represents a pKi value between 9 and 10 (Ki between 1 nM and 0.1 nM))	B (B represents a pKi value between 9 and 10 (Ki between 1 nM and 0.1 nM))					BEAS2B pIC50 [1, 3]: B (B represents a pEC50 value between 6.7 and 7.5 (EC50 between 200 nM and 32 nM))
COc1ccc2c(N[C@@H]3C[C@H]4CC[C@@H](C3)N4S(C)(=O)=O)nc(Nc3cc(C)[nH]n3)cc2n1 [Example 5-9]				< 31.6	0.1 to 1	0.1 to 1	< 31.6	Ki (JAK2; [4]): 0.1 to 1 nM
Cc1cc(Nc2cc3ncccc3c(N[C@@H]3C[C@H]4CC[C@@H](C3)N4CC3(C#N)CC3)n2)n[nH]1 [Example 1-24]				31.6 to 200	0.1 to 1	0.1 to 1	< 31.6	
Cc1cnc2cc(Nc3cc(C)[nH]n3)nc(N[C@@H]3C[C@H]4CC[C@@H](C3)N4S(=O)(=O)N3CC(C#N)C3)c2c1 [Example 6-4]				< 31.6	0.1 to 1	0.1 to 1	< 31.6	
COc1cnc2cc(Nc3cc(C)[nH]n3)nc(N[C@@H]3C[C@H]4CCC[C@@H](C3)N4CCC#N)c2c1 [Example 6-31]	B (B represents a pKi value between 9 and 10 (Ki between 1 nM and 0.1 nM))	B (B represents a pKi value between 9 and 10 (Ki between 1 nM and 0.1 nM))	B (B represents a pKi value between 9 and 10 (Ki between 1 nM and 0.1 nM))					THP-1 IL4 pIC50 [2, 9]: A (A represents a pEC50 value≥7.5 (EC50≤32 nM)); BEAS2B pIC50 [1, 10]: A (A represents a pEC50 value≥7.5 (EC50≤32 nM))
Cc1cc(Nc2cc3ncc(S(C)(=O)=O)cc3c(N[C@@H]3C[C@H]4CC[C@@H](C3)N4CCC(F)(F)F)n2)n[nH]1 [Example 6-56]	A (A represents a pKi value≥10 (Ki≤0.1 nM))	B (B represents a pKi value between 9 and 10 (Ki between 1 nM and 0.1 nM))	B (B represents a pKi value between 9 and 10 (Ki between 1 nM and 0.1 nM))					THP-1 IL4 pIC50 [2, 9]: B (B represents a pEC50 value between 6.7 and 7.5 (EC50 between 200 nM and 32 nM)); BEAS2B pIC50 [1, 10]: B (B represents a pEC50 value between 6.7 and 7.5 (EC50 between 200 nM and 32 nM))
COc1cnc2cc(Nc3cc(C)[nH]n3)nc(N[C@@H]3C[C@H]4CCC[C@@H](C3)N4S(C)(=O)=O)c2c1 [Example 6-29]	B (B represents a pKi value between 9 and 10 (Ki between 1 nM and 0.1 nM))	B (B represents a pKi value between 9 and 10 (Ki between 1 nM and 0.1 nM))	B (B represents a pKi value between 9 and 10 (Ki between 1 nM and 0.1 nM))					THP-1 IL4 pIC50 [2, 9]: A (A represents a pEC50 value≥7.5 (EC50≤32 nM)); BEAS2B pIC50 [1, 10]: A (A represents a pEC50 value≥7.5 (EC50≤32 nM))
Cc1cc(Nc2cc3ncccc3c(N[C@@H]3C[C@H]4CCC[C@@H](C3)N4C(=O)C(C)CC#N)n2)n[nH]1 (stereo partly drawn) [Example 2-29]	B (B represents a pKi value between 9 and 10 (Ki between 1 nM and 0.1 nM))	B (B represents a pKi value between 9 and 10 (Ki between 1 nM and 0.1 nM))	B (B represents a pKi value between 9 and 10 (Ki between 1 nM and 0.1 nM))					BEAS2B pIC50 [1, 3]: B (B represents a pEC50 value between 6.7 and 7.5 (EC50 between 200 nM and 32 nM))
COc1cnc2cc(Nc3cc(C)[nH]n3)nc(N[C@@H]3C[C@H]4CC[C@@H](C3)N4S(=O)(=O)N3CC(C#N)C3)c2c1 [Example 6-20]					0.1 to 1	0.1 to 1	31.6 to 200	Ki (JAK2): 0.1 to 1 nM
COc1cnc2cc(Nc3cc(C)[nH]n3)nc(N[C@@H]3C[C@H]4CC[C@@H](C3)N4S(=O)(=O)CCCC#N)c2c1 [Example 6-21]	B (B represents a pKi value between 9 and 10 (Ki between 1 nM and 0.1 nM))	B (B represents a pKi value between 9 and 10 (Ki between 1 nM and 0.1 nM))	B (B represents a pKi value between 9 and 10 (Ki between 1 nM and 0.1 nM))					BEAS2B pIC50 [1, 10]: B (B represents a pEC50 value between 6.7 and 7.5 (EC50 between 200 nM and 32 nM))
CCC(CC#N)N1[C@@H]2CC[C@H]1C[C@H](Nc1nc(Nc3cc(C)[nH]n3)cc3ncccc13)C2 (stereo partly drawn) [Example 1-22]	B (B represents a pKi value between 9 and 10 (Ki between 1 nM and 0.1 nM))	B (B represents a pKi value between 9 and 10 (Ki between 1 nM and 0.1 nM))	B (B represents a pKi value between 9 and 10 (Ki between 1 nM and 0.1 nM))					THP-1 IL4 pIC50 [2, 11]: B (B represents a pEC50 value between 6.7 and 7.5 (EC50 between 200 nM and 32 nM)); BEAS2B pIC50 [1, 3]: A (A represents a pEC50 value≥7.5 (EC50≤32 nM))
COc1ccc2c(N[C@@H]3C[C@H]4CC[C@@H](C3)N4CCC#N)nc(Nc3cc(C)[nH]n3)cc2n1 [Example 5-8]	B (B represents a pKi value between 9 and 10 (Ki between 1 nM and 0.1 nM))	B (B represents a pKi value between 9 and 10 (Ki between 1 nM and 0.1 nM))	B (B represents a pKi value between 9 and 10 (Ki between 1 nM and 0.1 nM))					THP-1 IL4 pIC50 [2, 11]: A (A represents a pEC50 value≥7.5 (EC50≤32 nM)); BEAS2B pIC50 [1, 3]: A (A represents a pEC50 value≥7.5 (EC50≤32 nM))
Cc1cnc2c(F)c(Nc3cc(C)[nH]n3)nc(N[C@@H]3C[C@H]4CCC[C@@H](C3)N4S(=O)(=O)N3CC(C#N)C3)c2c1 [Example 8-23]	A (A represents a pKi value≥10 (Ki≤0.1 nM))	B (B represents a pKi value between 9 and 10 (Ki between 1 nM and 0.1 nM))	B (B represents a pKi value between 9 and 10 (Ki between 1 nM and 0.1 nM))					THP-1 IL4 pIC50 [2, 9]: B (B represents a pEC50 value between 6.7 and 7.5 (EC50 between 200 nM and 32 nM)); BEAS2B pIC50 [1, 10]: B (B represents a pEC50 value between 6.7 and 7.5 (EC50 between 200 nM and 32 nM))
Cc1cc(Nc2cc3nc(CN4CCOCC4)ccc3c(N[C@@H]3C[C@H]4CC[C@@H](C3)N4S(=O)(=O)c3cncc(F)c3)n2)n[nH]1 [Example 5-20]				< 31.6	0.1 to 1	0.1 to 1	31.6 to 200	Ki (JAK2; [4]): 0.1 to 1 nM
Cc1cc(Nc2cc3ncccc3c(N[C@@H]3C[C@H]4CC[C@@H](C3)N4C3(CC#N)COC3)n2)n[nH]1 [Example 1-25]				< 31.6		0.1 to 1	< 31.6	Ki (Tyk2): 0.1 to 1 nM
COc1cnc2cc(Nc3cc(C)[nH]n3)nc(N[C@@H]3C[C@H]4CC[C@@H](C3)N4S(=O)(=O)CC3(C#N)CC3)c2c1 [Example 6-23]					0.1 to 1	0.1 to 1	31.6 to 200	
Cc1cc(Nc2cc3ncccc3c(N[C@@H]3C[C@H]4CC[C@@H](C3)N4CC(F)(F)F)n2)n[nH]1 [Example 1-14]				< 31.6			< 31.6	Ki (JAK2): 0.1 to 1 nM; Ki (Tyk2): 0.1 to 1 nM; Ki (JAK1): 0.1 to 1 nM
COc1ccc2c(N[C@@H]3C[C@H]4CC[C@@H](C3)N4CC(F)(F)F)nc(Nc3cc(C)[nH]n3)cc2n1 [Example 5-1]				< 31.6	0.1 to 1	0.1 to 1	< 31.6	Ki (JAK2; [4]): 0.1 to 1 nM
